Target: T1, lysozyme (Lys) (Gallus gallus, UniProt P00698)
T1 construct: Lyophilized lysozyme from chicken egg white, ≥90% purity; purchased Millipore (Darmstadt, Germany); host or cells: chicken egg white (natural source)
Experiment: Far-UV CD secondary structure content of lysozyme (K2D deconvolution)
Parameters: species or system chicken; Lys α-helix content / Lys β-sheet content / Lys random coil content / α-helix content / β-sheet content / Random coil content: unit not given here
Settings: 1.0 mg/ml Lys, 25 °C
Protocol: Circular dichroism (CD) spectroscopy is broadly applied to assess the secondary structure of proteins because different structural elements have characteristic CD spectra. […] For [C4C1Im][CF3SO3] (mere fluoro-containing IL), the structural content was estimated for the concentration range (0.1–200 mM). […] FIL and [ N1112(OH) ][H2PO4] […] No substantial protein structural modification upon the ABS phase-forming component addition was verified.
Circular dichroism (CD) spectra were collected in a 10 mm quartz cuvette and a Chirascan spectropolarimeter (Applied Photophysics, Leatherhead, UK) at room temperature. All CD spectra were recorded in far-UV 190 to 260 nm at scan rates of 50 nm/min, 4 accumulations, and a response time of 3 s. Each CD experiment involved the acquisition and combination of two distinct duplicates. […] Spectral deconvolution was carried out with Dichroweb using the K2D algorithm.

T1 sequence (P00698 19-147): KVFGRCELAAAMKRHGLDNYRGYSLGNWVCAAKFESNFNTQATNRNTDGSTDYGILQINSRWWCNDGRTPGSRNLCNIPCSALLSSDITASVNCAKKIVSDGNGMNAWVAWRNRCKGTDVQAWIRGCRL

Lys random coil content (0.1 mM component): 0.56 | Lys α-helix content (0.1 mM component): 0.28 | Lys β-sheet content (0.1 mM component): 0.15 | Lys random coil content (1 mM component): 0.57 | Lys α-helix content (1 mM component): 0.28 | Lys β-sheet content (1 mM component): 0.15 | Lys random coil content (5 mM component): 0.57 | Lys α-helix content (5 mM component): 0.28 | Lys β-sheet content (5 mM component): 0.15 | Lys random coil content (25 mM component): 0.57 | Lys α-helix content (25 mM component): 0.28 | Lys β-sheet content (25 mM component): 0.15 | Lys random coil content (55 mM component): 0.57 | Lys α-helix content (55 mM component): 0.28 | Lys β-sheet content (55 mM component): 0.15 | Lys random coil content (90 mM component): 0.56 | Lys α-helix content (90 mM component): 0.28 | Lys β-sheet content (90 mM component): 0.15 | Lys random coil content (120 mM component): 0.56 | Lys α-helix content (120 mM component): 0.28 | Lys β-sheet content (120 mM component): 0.15 | Lys random coil content (200 mM component): 0.55 | Lys α-helix content (200 mM component): 0.29 | Lys β-sheet content (200 mM component): 0.16
Structure (SMILES): CCCCn1cc[n+](C)c1.O=S(=O)([O-])C(F)(F)F [[C4C1Im][CF3SO3]]

From publication PMC11172314, “Towards Enhanced Tunability of Aqueous Biphasic Systems: Furthering the Grasp of Fluorinated Ionic Liquids in the Purification of Proteins” (International Journal of Molecular Sciences, 2024)
